In patent US9845311B2, “Nrf2 activating compounds and uses thereof” (RIGEL PHARMACEUTICALS, INC., priority 2016, dated 2017):
Where a name gives a salt, the structure may show the parent alone.

Legend:
[1] = tested on: NrF2 (Nuclear factor (erythroid-derived 2)-like 2); experiment: NrF2 activation in a whole cell nuclear translocation assay; format: cell-based
Method: Compounds are tested in a NrF2 (Nuclear factor (erythroid-derived 2)-like 2) translocation assay by adapting the methods set forth in U.S. Pat. No. 8,101,373, the disclosure of which is incorporated herein by reference. A result of NrF2 activation in the assay by the present compounds is an indication of their anti-inflammatory activity. […] In addition to monomethyl fumarate and dimethyl fumarate, bardoxolone methyl may be used as a positive control.

[2] = Glutathione depletion assay (Michael addition to reduced glutathione, followed by 1H NMR); format: physicochemical; conditions: 2 equiv. reduced glutathione, d6-DMSO, 35° C.
Text: See, for example, Lehmann et al. Dimethyfumarate Induces Immunosuppression via Glutathione Depletion and Subsequent Induction of Heme Oxygenase 1, Journal of Investigative Dermatology (2007) 127, 835-845. Accordingly, the present compounds may be assessed in vitro by reaction with glutathione as follows:
(with the top securely fastened).
In all the above cases, dis-appearance of the alkene proton signals from the starting material are used to determine the extent of Michael reaction with glutathione.
As would be understood by those of skill in the art, the above experiments can be repeated by varying the equivalents of reduced glutathione (0.5 to 2 equivalents); the reactions can also be run in a mixture of d6-DMSO and D2O; and the temperature of the reaction can also be varied from room temperature to 35° C. (35° C. being used to mimic body temperature). As used herein “majority reaction” means a greater than 50% reduction in alkene proton signal as observed by ^1H NMR.

[3] = tested on: experimental autoimmune encephalomyelitis (EAE); experiment: Experimental autoimmune encephalomyelitis (EAE) animal model; format: in vivo, mice; conditions: dosed at 60 mg/kg beginning on the day of immunization

Compound	EC50 [1] [µM]	time to majority reaction with glutathione (greater than 50% reduction in alkene proton signal by 1H NMR) [2] [h]	onset of disease paralysis [3]
COC(=O)/C=C/C(=O)O [Monomethyl fumarate, monomethylfumarate]	~127	–	–
COC(=O)/C=C/n1nnn(C)c1=O [methyl (E)-3-(4-methyl-5-oxo-4,5-dihydro-1H-tetrazol-1-yl)acrylate]	–	≤ 30	–
COC(=O)/C=C/n1nn[nH]c1=O [methyl (E)-3-(5-oxo-4,5-dihydro-1H-tetrazol-1-yl)acrylate]	–	≤ 30	significantly prevents the onset of disease paralysis
